Laboratory results as given in ChEMBL document CHEMBL1201862, “PubChem BioAssay data set” (2004).
Calls of active or inactive are those of the source.

Key:
[1] = molecular target: T1, Short transient receptor potential channel 4 (Mus musculus, UniProt Q9QUQ5); test: mouse TRPC4 channel inhibitors, dose response, cell-based, HEK293 TRPC4/mu-opioid, Fluo-4 calcium (AID 434942); assay type: functional;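 also: potency of inhibitors blocking the TRPC4 calcium response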
T1 sequence (Q9QUQ5 whole entry): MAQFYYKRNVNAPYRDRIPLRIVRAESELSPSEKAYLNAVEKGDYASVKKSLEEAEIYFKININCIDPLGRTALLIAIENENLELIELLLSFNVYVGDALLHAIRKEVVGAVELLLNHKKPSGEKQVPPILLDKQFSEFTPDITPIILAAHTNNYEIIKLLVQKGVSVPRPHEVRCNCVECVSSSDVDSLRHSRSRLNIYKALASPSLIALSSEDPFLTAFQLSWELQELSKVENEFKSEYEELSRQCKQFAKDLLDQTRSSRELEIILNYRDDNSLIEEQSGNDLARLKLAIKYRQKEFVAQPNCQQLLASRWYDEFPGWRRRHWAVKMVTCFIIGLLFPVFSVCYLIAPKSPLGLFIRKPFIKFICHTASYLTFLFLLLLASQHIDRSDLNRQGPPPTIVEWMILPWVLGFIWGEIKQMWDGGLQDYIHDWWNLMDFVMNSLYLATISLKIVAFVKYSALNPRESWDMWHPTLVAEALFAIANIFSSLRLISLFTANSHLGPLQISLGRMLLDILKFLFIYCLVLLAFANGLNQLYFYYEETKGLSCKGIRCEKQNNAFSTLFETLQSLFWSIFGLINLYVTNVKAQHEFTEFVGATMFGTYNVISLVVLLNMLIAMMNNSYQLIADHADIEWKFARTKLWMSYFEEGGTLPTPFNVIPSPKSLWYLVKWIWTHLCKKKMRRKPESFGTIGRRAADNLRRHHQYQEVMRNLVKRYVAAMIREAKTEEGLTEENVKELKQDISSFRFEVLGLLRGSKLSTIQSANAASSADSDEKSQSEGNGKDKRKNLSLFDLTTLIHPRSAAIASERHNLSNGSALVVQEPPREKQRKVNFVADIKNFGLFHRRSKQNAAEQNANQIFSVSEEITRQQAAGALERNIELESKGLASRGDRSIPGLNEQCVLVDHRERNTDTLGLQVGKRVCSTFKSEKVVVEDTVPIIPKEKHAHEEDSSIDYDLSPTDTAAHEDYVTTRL

[2] = molecular target: Beta-2 adrenergic receptor (Homo sapiens, UniProt P07550); test: beta2AR agonists driving receptor internalization, dose response, cell-based, FAP fluorogen, flow cytometry, cherry pick 1 (AID 588763); assay type: functional
Beta-2 adrenergic receptor, sequence (P07550 whole entry): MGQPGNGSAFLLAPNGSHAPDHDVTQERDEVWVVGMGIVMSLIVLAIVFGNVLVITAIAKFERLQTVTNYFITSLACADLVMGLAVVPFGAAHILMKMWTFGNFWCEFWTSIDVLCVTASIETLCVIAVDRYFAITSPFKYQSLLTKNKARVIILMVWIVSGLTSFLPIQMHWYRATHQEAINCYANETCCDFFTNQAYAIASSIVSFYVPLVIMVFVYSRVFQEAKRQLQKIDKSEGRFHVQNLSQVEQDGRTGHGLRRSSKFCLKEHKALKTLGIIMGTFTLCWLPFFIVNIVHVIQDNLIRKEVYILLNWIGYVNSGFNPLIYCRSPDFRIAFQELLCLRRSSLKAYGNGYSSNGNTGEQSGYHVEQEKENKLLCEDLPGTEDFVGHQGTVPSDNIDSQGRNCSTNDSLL

Nonstructural protein 1 = Nonstructural protein 1 (Influenza A virus, UniProt Q194T2); assay type: functional, Influenza A virus (A/California/07/2009(H1N1))
Nonstructural protein 1, sequence (Q194T2 whole entry): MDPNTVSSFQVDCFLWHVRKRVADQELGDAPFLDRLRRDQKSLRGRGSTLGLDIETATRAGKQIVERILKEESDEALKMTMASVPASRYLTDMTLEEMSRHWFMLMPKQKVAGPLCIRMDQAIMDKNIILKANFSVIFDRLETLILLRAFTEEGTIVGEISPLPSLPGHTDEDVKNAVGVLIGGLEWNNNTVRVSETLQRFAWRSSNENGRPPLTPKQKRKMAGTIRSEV

[3] = molecular target: T2, Apoptotic protease-activating factor 1 (Homo sapiens, UniProt O14727); assay type: functional
T2 sequence (O14727 whole entry): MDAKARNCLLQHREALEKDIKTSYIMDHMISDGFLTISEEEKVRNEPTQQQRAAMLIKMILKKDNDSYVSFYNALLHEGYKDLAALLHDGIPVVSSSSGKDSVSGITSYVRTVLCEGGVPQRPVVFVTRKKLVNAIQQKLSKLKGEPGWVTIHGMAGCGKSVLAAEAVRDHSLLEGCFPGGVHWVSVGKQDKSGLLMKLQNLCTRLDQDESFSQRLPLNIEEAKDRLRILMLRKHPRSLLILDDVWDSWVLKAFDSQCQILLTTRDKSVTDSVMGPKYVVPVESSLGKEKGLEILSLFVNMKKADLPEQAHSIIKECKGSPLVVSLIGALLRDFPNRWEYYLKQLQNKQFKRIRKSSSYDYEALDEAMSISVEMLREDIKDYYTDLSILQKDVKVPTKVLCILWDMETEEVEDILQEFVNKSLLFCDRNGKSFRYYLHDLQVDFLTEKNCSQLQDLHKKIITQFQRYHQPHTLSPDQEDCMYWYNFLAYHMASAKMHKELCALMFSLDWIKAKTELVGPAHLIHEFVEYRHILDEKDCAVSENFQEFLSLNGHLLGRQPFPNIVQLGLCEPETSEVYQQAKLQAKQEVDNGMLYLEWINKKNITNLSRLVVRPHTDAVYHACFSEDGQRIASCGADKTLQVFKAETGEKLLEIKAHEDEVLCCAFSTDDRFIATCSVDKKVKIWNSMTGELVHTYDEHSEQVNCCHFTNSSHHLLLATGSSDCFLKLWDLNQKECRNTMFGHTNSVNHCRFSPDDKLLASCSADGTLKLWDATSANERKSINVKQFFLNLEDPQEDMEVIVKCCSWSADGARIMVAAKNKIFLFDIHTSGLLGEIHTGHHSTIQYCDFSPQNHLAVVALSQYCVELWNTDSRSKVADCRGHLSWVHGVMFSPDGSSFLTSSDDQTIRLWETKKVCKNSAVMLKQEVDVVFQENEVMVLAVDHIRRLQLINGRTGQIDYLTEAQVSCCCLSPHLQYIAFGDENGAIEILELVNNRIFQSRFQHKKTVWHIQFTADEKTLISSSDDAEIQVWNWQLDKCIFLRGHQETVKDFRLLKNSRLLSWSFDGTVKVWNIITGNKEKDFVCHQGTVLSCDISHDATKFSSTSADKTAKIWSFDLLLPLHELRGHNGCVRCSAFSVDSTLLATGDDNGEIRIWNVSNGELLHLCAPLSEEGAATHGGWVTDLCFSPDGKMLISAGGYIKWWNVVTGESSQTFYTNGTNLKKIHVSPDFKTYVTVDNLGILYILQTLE

Tumor necrosis factor = Tumor necrosis factor (Homo sapiens, UniProt P01375); test: TNFa-triggered NF-kB activation inhibitors, SAR follow-up, cell-based, revised (AID 2337); assay type: functional
Tumor necrosis factor, sequence (P01375 whole entry, the tested form may be a part): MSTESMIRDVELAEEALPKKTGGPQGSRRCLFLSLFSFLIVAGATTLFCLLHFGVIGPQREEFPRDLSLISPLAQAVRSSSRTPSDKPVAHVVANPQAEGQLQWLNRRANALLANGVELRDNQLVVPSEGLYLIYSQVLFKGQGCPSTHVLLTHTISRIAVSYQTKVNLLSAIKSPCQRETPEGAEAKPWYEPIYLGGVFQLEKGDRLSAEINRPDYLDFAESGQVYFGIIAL

[4] = molecular target: T3, Nucleotide-binding oligomerization domain-containing protein 1 (Homo sapiens, UniProt Q9Y239); test: NOD1 signaling inhibitors, SAR follow-up, revised (AID 2333); assay type: functional
T3 sequence (Q9Y239 whole entry): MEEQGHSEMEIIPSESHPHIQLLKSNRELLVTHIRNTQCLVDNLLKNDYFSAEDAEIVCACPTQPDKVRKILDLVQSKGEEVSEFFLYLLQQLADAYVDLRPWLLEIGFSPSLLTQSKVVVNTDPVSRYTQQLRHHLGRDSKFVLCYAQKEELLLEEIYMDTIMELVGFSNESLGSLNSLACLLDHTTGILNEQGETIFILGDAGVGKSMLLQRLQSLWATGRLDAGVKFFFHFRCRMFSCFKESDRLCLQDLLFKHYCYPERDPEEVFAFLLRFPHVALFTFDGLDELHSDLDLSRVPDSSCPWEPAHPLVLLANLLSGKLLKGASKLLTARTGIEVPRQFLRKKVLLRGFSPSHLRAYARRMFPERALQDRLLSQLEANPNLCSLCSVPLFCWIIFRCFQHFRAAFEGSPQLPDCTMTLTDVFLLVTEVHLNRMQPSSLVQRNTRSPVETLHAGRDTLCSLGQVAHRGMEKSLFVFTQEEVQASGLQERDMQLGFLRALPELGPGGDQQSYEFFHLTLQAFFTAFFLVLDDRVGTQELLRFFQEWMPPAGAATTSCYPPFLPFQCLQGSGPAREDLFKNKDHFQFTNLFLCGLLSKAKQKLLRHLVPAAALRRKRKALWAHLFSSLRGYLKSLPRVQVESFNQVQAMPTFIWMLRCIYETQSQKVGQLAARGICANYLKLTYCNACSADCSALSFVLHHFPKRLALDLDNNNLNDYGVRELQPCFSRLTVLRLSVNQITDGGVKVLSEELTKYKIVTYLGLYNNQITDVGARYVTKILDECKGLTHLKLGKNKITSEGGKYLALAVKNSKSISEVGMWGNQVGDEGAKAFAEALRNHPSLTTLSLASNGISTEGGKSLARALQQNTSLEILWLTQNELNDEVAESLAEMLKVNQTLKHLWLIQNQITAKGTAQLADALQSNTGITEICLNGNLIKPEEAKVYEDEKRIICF

HEK293 = test: cells; settings: Homo sapiens;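 also: cells exposed to compound for 14 hours overnight before viability readout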
BJ [5] = test: cytotoxicity toward BJ-TERT fibroblasts, dose response, cell-based, RAS-independent, luminescence (AID 1933); assay type: functional; settings: Homo sapiens
BJ [6] = test: cells; assay type: functional, cell-based; settings: Homo sapiens
BJ [7] = test: cytotoxicity toward BJ-TERT-LT-ST fibroblasts, dose response, cell-based, RAS-independent, luminescence (AID 1935); assay type: functional; settings: Homo sapiens;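 also: BJ fibroblasts immortalized with TERT plus LT and ST oncogenes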
[8] = cytotoxicity toward DRD oncogenic fibroblasts, dose response, cell-based, non-viral oncogenic, luminescence (AID 1934); assay type: functional; settings: Homo sapiens
[9] = system: Streptococcus sp. 'group A'; test: growth inhibition of control SK(-) GAS strain, dose response, counter-screen for streptokinase expression inhibitor project, luminescence, kanamycin, BacTiterGlo, confirmation (AID 1900); assay type: functional, organism-based
Streptokinase A = molecular target: T4, Streptokinase A (Streptococcus pyogenes serotype M1, UniProt P10520); test: S. pyogenes streptokinase expression inhibitors, potency, dose response, plasminogen activation absorbance, OD405 (AID 1914); assay type: functional, Streptococcus pyogenes M1 GAS;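 also: secreted streptokinase activity via plasminogen activation per viability signal from cell pellet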
T4 sequence (P10520 whole entry): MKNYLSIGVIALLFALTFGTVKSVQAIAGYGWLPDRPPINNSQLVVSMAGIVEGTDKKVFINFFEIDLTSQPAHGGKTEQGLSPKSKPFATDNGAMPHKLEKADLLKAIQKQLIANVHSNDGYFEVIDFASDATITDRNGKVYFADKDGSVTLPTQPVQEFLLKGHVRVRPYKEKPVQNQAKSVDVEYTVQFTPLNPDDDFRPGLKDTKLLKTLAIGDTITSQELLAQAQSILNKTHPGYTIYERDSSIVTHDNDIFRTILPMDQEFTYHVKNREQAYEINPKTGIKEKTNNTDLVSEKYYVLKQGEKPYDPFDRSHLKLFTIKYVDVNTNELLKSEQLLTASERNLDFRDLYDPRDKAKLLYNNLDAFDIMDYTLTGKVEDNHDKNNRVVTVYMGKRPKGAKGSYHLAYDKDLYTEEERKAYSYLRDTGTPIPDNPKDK

Streptococcus = test: Group A Streptococcus viability loss, dose response, counter-screen for streptokinase expression inhibitor project, luminescence, BacTiterGlo (AID 1915); assay type: functional, organism-based;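 also: potency for reduction of bacterial viability or growth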
[10] = molecular target: T5, Microphthalmia-associated transcription factor (Homo sapiens, UniProt O75030); test: TRPM1 promoter luciferase signal decrease, dose response, MITF inhibitor project, cell-based, SK-MEL-5, cherry-picked, set 3 (AID 493073); assay type: functional
T5 sequence (O75030 whole entry): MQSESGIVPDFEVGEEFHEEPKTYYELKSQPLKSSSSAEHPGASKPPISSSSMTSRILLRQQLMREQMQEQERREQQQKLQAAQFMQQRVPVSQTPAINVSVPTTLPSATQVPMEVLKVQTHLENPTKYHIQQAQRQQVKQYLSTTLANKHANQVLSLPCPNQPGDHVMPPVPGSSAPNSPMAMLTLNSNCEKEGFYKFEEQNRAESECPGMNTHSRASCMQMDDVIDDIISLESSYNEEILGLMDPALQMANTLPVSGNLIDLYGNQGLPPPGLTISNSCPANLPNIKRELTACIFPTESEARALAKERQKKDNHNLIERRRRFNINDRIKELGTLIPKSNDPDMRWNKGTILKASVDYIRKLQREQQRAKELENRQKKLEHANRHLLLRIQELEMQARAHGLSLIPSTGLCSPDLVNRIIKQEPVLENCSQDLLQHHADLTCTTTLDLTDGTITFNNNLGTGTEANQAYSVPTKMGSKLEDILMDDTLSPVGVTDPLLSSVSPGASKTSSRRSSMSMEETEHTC

INS1 = test: beta cell apoptosis inhibitors, cytokine rescue, dose response, luminescence, retest (AID 449756); assay type: functional, cell-based; settings: Rattus norvegicus;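 also: cell death triggered by IL-1 beta plus TNF-alpha plus IFN-gamma mixture; protective hits raise ATP signal compared with cytokine alone wells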

COCCn1c(SCc2cc(C(C)=O)ccc2OC)nc2cc(Cl)ccc2c1=O
EC50 [1]: 3.35 µM (active)

Clc1ccc(CN2C3=NCCN3c3ccccc32)cc1Cl
EC50 [1]: 1.19 µM (active)

CC(C)(c1ccccc1)c1ccc(OCCCNCCO)cc1
EC50 [1]: 4.22 µM (active)

CCC(=O)Nc1ccc(-c2nn3c(C)nnc3s2)cc1C
EC50 [2]: 3.12 µM (active)

CCc1ccc(CNC(=O)c2ccc(NC(=O)C3=CSCCO3)cc2)cc1
EC50 [2]: 0.0949 µM (active)

O=C1C(NS(=O)(=O)c2ccc(Cl)cc2)=C(N2CCCCC2)C(=O)c2ccccc21
IC50 (Nonstructural protein 1): 11.4 µM (active) | IC50 [3]: 30.5 µM (active)

O=C(CN1CCCCC1)N1c2ccccc2Oc2ccccc21
EC50 [1]: 6.68 µM (active)

COc1ccc(NC(=O)c2ccc(CN3CCCCC3)cc2)cc1
IC50 (Tumor necrosis factor): > 20 µM (inactive) | IC50 [4]: > 20 µM (inactive) | IC50 (HEK293): > 20 µM (inactive)

O=C(Nc1ccc(S(=O)(=O)N2CCCCC2)cc1)c1ccc(CN2CCc3ccccc3C2)cc1
EC50 (BJ [5]): 23.9 µM (active) | EC50 (BJ [6]): 51.8 µM (active) | EC50 (BJ [7]): > 150 µM (not active) | EC50 [8]: 22 µM (active) | IC50 (Tumor necrosis factor): 0.616 µM (active) | IC50 [4]: 0.432 µM (active) | IC50 (HEK293): 19.5 µM (active)

CCCCCn1cc[n+](C2=C([N-]S(=O)(=O)c3ccccc3)C(=O)c3ccccc3C2=O)c1
EC50 [9]: 1.15 µM (active) | EC50 (Streptokinase A): 3.69 µM (active) | EC50 (Streptococcus): 13.3 µM (active) | AC50 [10]: 5.9 µM (active) | IC50 [3]: 13.8 µM (active) | AC50 (INS1): 4.7 µM (active)

CC1(C)CC2CC(C)(CN2C(=O)c2cc(-c3ccc(O)cc3)on2)C1 (stereo not given)
EC50 [1]: 5.31 µM (active)
